In patent US9546151B2, “VMAT inhibitory compounds” (Oregon Health & Science University, priority 2014, dated 2017):
Read-outs that look alike come from different tables or passages of the source.

Columns and labels:
human 5HT2A receptor = target: T1, human 5HT2A receptor (Homo sapiens, UniProt P28223); assay: h5HT2A receptors: [125I]DOI binding
T1 construct: expressed in transfected cells; host or cells: HEK cells
Procedure: Method: Human embryonic kidney cells expressing the human 5HT2A receptor (HEK-h5HT2A) or human 5HT2C receptor (HEK-h5HT2C) were used. The cells were grown until confluent on 15 cm plates. Media was removed, cells were washed with phosphate-buffered saline (PBS), scraped into 2 ml PBS and frozen at −20° C. until needed. Cell suspension was thawed, 10 ml assay buffer (50 mM Tris, pH 7.4 at 37° C., with 0.1% ascorbic acid and 5 mM CaCl2) was added per plate of cells, and polytronned at setting 6 for 5 sec. The homogenate was centrifuged at 15,500 rpm for 20 min. […] The final pellet was resuspended in 2 ml buffer/plate of cells.
The reaction was incubated for 1 hour at 37° C., and terminated by filtration through Wallac A filtermats presoaked in 0.05% polyethylenimine using a Tomtec 96-well harvester. Radioactivity remaining on filters was counted in a Wallac betaplate reader. IC50 values were calculated using GraphPad Prism. IC50 values were converted using the Cheng-Prusoff equation.

human 5HT1A receptor = target: T2, human 5HT1A receptor (Homo sapiens, UniProt P08908); assay: h5HT1A receptors: [3H]8-OH-DPAT binding; settings: read-out: 5-HT1A [^3H] 8—OH DPAT Ki(nM) ± SEM
T2 construct: expressed in transfected cells; host or cells: HEK cells (G418 selection)
T2 sequence (P08908 1-422): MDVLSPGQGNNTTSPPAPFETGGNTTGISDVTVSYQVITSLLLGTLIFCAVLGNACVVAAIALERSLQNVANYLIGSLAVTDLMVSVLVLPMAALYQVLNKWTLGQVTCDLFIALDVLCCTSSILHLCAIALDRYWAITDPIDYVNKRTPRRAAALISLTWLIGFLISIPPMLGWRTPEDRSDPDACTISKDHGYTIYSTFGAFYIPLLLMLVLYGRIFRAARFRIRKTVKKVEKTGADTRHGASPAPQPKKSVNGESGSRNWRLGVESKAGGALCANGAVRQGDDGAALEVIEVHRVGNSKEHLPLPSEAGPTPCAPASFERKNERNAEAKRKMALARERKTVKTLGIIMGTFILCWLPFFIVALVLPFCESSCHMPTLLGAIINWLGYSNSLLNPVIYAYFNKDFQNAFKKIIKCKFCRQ
Procedure: Human embryonic kidney cells expressing the human 5HT1A receptor (HEK-h5HT1A) were used. The cells were grown to confluence in DMEM containing 10% FetalClone® (abbreviated as FC—source: HyClone), 0.05% penicillin-streptomycin (pen-strep), and 300 μg/mL of Geneticin (G418). The cells were scraped from 150 mm plates into phosphate-buffered saline and centrifuged at 270×g, 1200 rpm, for 10 minutes. The cell pellet was homogenized in 50 mM Tris-HCl (pH 7.7) with a Polytron, and centrifuged at 27,000×g. […] The final pellet was resuspended at 0.5 mg protein/mL in assay buffer (25 mM Tris-HCl, pH 7.4, containing 100 μM ascorbic acid and 10 μM pargyline). The assay was performed in duplicate in a 96-well plate. Serial dilutions of test compounds were made using the Biomek 2000 robotics system. […] Nonspecific binding was determined with 1.0 μM dihydroergotamine. The plates were incubated at room temperature for 60 minutes and then filtered through polyethylenimine-soaked (0.05%) “A” filtermats on a Tomtec cell harvester. The filters were washed with cold 50 mM Tris buffer (pH 7.7) for 6 sec, dried, spotted with scintillation cocktail, and counted for 2 minutes after a 4 hour delay on a Wallac Betaplate 1205 liquid scintillation counter.

VMAT2 [1] = target: T3, VMAT2 (Homo sapiens, UniProt Q05940); assay: hVMAT2 5HT Uptake; assay type: biochemical; parameters: expressed in transfected cells; host or cells: HEK (human embryonic kidney) cells
Procedure: (§1) Membrane preparation for binding, uptake and release assays using HEK-hVMAT2 cells: Human embryonic kidney cells expressing the human vesicular monoamine transporter 2 (HEK-hVMAT2) were used. HEK-hVMAT2 cells were grown until confluent. The media was removed from plates, solution A [sucrose (0.32 M) with protease inhibitors] was added to the plate, and cells were scraped from plate. Cells were homogenized with 12 strokes of a glass/glass homogenizer. The homogenate was centrifuged at 800×g for 10 min. The supernatant was removed and saved, and the pellet was resuspended, homogenized and centrifuged as above. The supernatants were combined and centrifuged at 10,000×g for 20 min. The pellet was resuspended in solution A (0.75 ml). The membranes were osmotically shocked by addition of 2.625 ml ice cold water and homogenized by 5 strokes of a glass/Teflon homogenizer. The osmolarity was reestablished with addition of Tris (338 μl, 0.25M, pH 7.4 at 4° C.), sodium potassium tartrate (338 μl, 1.0 M), and MgSO4 (4 μl, 0.9M). The homogenate was centrifuged at 20,000×g for 20 min.

VMAT2 [2] = target: T3, VMAT2; assay: hVMAT2 [3H]DTBZ ([3H]DHTB) binding assay; parameters: expressed in transfected cells; host or cells: HEK (human embryonic kidney) cells
Procedure: as §1
Binding was terminated by filtration over Whatman GF/C filters using a Tomtec 96-well cell harvester. Filters were washed for six seconds with ice-cold saline. Scintillation fluid was added to each square and radioactivity remaining on the filters was determined using a Wallac μ- or beta-plate reader. Specific binding was defined as the difference in binding observed in the presence and absence of Ro4-1284 (10 μM, generously supplied by Hoffman LaRoche). Three or more independent competition experiments were conducted with duplicate determinations.

[3] = cells printed in μM under a head in nM, read-out: 5-HT2A [^125I]DOI Ki (nM) ± SEM
[4] = cells printed in μM under a head in nM
[5] = [^3H]5HT uptake, HEK-hVMAT2 preparation, read-out: hVMAT2 5HT Uptake IC50 (nM) ± SEM
[6] = cells printed in μM under a head in nM, HEK-hVMAT2 membranes
[7] = cells printed in μM under a head in nM, read-out: hVMAT2 5HT Uptake IC50 (nM) ± SEM
[8] = HEK-h5HT2A homogenate, read-out: 5-HT2A [^125I]DOI Ki (nM) ± SEM
[9] = HEK-hVMAT2 membranes, series 5 ligands tested as hydrochloride salts

T3 sequence (Q05940 whole entry): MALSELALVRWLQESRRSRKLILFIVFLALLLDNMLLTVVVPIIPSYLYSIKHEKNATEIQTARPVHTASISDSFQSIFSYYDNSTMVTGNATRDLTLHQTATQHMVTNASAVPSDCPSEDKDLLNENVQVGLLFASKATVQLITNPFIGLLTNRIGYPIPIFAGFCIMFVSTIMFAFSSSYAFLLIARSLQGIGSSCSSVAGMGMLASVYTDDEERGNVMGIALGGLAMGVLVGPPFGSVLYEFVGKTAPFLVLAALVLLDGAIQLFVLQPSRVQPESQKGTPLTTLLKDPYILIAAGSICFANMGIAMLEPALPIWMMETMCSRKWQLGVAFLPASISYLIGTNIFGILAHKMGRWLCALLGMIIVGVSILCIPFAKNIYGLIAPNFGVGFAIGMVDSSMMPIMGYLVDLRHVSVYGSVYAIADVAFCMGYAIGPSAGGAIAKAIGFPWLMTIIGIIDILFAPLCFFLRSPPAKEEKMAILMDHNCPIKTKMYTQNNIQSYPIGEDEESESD
T1 sequence (P28223 whole entry): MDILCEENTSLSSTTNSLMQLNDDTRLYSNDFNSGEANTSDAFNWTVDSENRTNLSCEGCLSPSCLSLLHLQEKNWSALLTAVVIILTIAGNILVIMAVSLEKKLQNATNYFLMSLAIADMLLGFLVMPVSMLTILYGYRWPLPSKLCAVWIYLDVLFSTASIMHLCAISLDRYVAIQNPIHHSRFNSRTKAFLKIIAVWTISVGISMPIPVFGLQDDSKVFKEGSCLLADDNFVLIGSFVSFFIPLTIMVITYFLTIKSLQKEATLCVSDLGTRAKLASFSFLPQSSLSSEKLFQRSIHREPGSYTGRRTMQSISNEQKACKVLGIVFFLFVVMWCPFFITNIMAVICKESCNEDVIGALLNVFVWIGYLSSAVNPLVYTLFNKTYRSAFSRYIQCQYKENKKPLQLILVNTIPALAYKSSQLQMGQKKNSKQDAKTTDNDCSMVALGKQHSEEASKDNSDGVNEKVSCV

Ki (human 5HT1A receptor; [4]) | Ki (human 5HT2A receptor; [8]) | Structure (SMILES) | Ki (human 5HT2A receptor; [3]) | IC50 (VMAT2 [1]; [5]) | Ki (VMAT2 [2]; [6]) | further results
> 10 µM | – | CCOC(=O)c1ccc([C@H]2CCN(CCn3c(=O)[nH]c4ccccc4c3=O)C[C@H]2C(=O)OCC)cc1 (racemic) [Compound 5l, (±) syn-ethyl 1-(2-(2,4-dioxo-1,2-dihydroquinazolin-3(4H)-yl)ethyl)-4-(4-(ethoxycarbonyl)phenyl)piperidine-3-carboxylate] | > 10 µM | – | – | –
> 9 µM | – | CCOC(=O)[C@@H]1CN(CCn2c(=O)[nH]c3ccccc3c2=O)CC[C@@H]1c1ccc(F)cc1 (racemic) [Compound 5d, (±) syn-ethyl 1-(2-(2,4-dioxo-1,2-dihydroquinazolin-3(4H)-yl)ethyl)-4-(4-fluorophenyl)piperidine-3-carboxylate] | > 2 µM | – | – | –
> 10 µM | – | CCOC(=O)[C@H]1CN(CCCn2c(=O)[nH]c3ccccc3c2=O)CC[C@H]1c1ccc(F)cc1 (racemic) [n=2, (±)-syn-Ethyl 1-(3-(2,4-dioxo-1,2-dihydroquinazolin-3(4H)-yl)propyl)-4-(4-fluorophenyl)piperidine-3-carboxylate] | – | – | – | IC50 (VMAT2 [1]): 43 ± 4 nM; melting point: 171.8 to 172.4 °C; Ki (VMAT2 [2]): > 10 µM
– | – | CCOC(=O)C1=C(c2ccccc2)CCN(CCn2c(=O)[nH]c3ccccc3c2=O)C1 [R1=CO2-Et, 3,4-bond=ene] | – | – | – | IC50 (VMAT2 [1]): 66 ± 15 nM; Ki (human 5HT2A receptor): 0.081 ± 0.026 µM; Ki (human 5HT1A receptor; HEK-h5HT1A homogenate): > 0.0063 µM; Ki (VMAT2 [2]; read-out: hVMAT2 [^3H]DTBZ Ki (nM) ± SEM): 0.874 ± 0.276 µM
> 10 µM | – | CCOC(=O)[C@@H]1CN(CCn2c(=O)c3ccccc3n(C)c2=O)CC[C@@H]1c1cccc(F)c1 (racemic) [Compound 6d, (±)-syn Ethyl 4-(3-fluorophenyl)-1-(2-(1-methyl-2,4-dioxo-1,2-dihydroquinazolin-3(4H)-yl)ethyl)piperidine-3-carboxylate] | – | 89 ± 12 nM | > 9 µM | melting point: 101.2 to 102.5 °C
> 10 µM | 0.0459 ± 0.0124 µM | CC1CN(CCn2c(=O)[nH]c3ccccc3c2=O)CCC1C(=O)c1ccc(F)cc1 (racemic) [R1=H, R2=α/β-CH3] | – | 333 ± 106 nM | – | Ki (VMAT2 [2]; [9]): 0.276 ± 0.024 µM
> 2 µM | 0.0008 ± 0.00024 µM | O=C(c1ccc(F)cc1)C1CCN(CCn2c(=O)[nH]c3ccc(Br)cc3c2=O)CC1 [R1=Br, R2=H] | – | – | > 3 µM | IC50 (VMAT2 [1]; [7]): > 2000 nM
> 5 µM | 0.0198 ± 0.0058 µM | CC1CN(CCn2c(=O)[nH]c3ccccc3c2=O)CCC1C(=O)c1ccc(F)cc1 (single isomer, unassigned) [R1=H, R2=α-CH3] | – | – | > 6.4 µM | IC50 (VMAT2 [1]; [7]): > 7300 nM

Structure (SMILES) | Ki (human 5HT1A receptor; [4]) | Ki (human 5HT2A receptor; [8]) | Ki (human 5HT2A receptor; [3]) | IC50 (VMAT2 [1]; [5]) | Ki (VMAT2 [2]; [6]) | further results
CCOC(=O)[C@@H]1CN(CCn2c(=O)[nH]c3ccccc3c2=O)CC[C@@H]1c1ccc(C)cc1 (racemic) [Compound 5b, (±) syn-ethyl 1-(2-(2,4-dioxo-1,2-dihydroquinazolin-3(4H)-yl)ethyl)-4-(p-tolyl)piperidine-3-carboxylate] | > 10 µM | – | > 10 µM | 313 ± 54 nM | > 9 µM | –
CCOC(=O)[C@H]1CN(CCn2c(=O)[nH]c3ccccc3c2=O)CC[C@H]1c1cccc(N(C)C)c1 (racemic) [Compound 5aa, (±)-syn-Ethyl 4-(3-(dimethylamino)phenyl)-1-(2-(2,4-dioxo-1,2-dihydroquinazolin-3(4H),-yl)ethyl) piperidine-3-carboxylate] | > 10 µM | – | > 10 µM | – | > 10 µM | IC50 (VMAT2 [1]; [7]): > 5000 nM
CCOC(=O)[C@@H]1CN(CCn2c(=O)[nH]c3ccccc3c2=O)CC[C@@H]1c1cccc(C(F)(F)F)c1 (racemic) [Compound 5g, (±) syn-ethyl 1-(2-(2,4-dioxo-1,2-dihydroquinazolin-3(4H)-yl)ethyl)-4-(3-(trifluoromethyl)phenyl)piperidine-3-carboxylate] | > 10 µM | – | > 10 µM | 166 ± 6 nM | > 10 µM | –
CCOC(=O)[C@@H]1CN(CCn2c(=O)[nH]c3ccccc3c2=O)CC[C@@H]1c1ccc(C(F)(F)F)cc1 (racemic) [Compound 5f, (±) syn-ethyl 1-(2-(2,4-dioxo-1,2-dihydroquinazolin-3(4H)-yl)ethyl)-4-(4-(trifluoromethyl)phenyl)piperidine-3-carboxylate] | > 10 µM | – | > 10 µM | 416 ± 43 nM | > 10 µM | –
CCOC(=O)[C@@H]1CN(CCn2c(=O)[nH]c3ccccc3c2=O)CC[C@@H]1c1ccc(C(C)O)cc1 (mixture of isomers) [Compound 5p, (±) syn-ethyl 1-(2-(2,4-dioxo-1,2-dihydroquinazolin-3(4H)-yl)ethyl)-4-(4-(1-hydroxyethyl)phenyl)piperidine-3-carboxylate] | > 10 µM | – | > 10 µM | – | > 9 µM | IC50 (VMAT2 [1]; [7]): > 8000 nM; melting point: 187 to 188 °C
O=c1[nH]c2ccccc2c(=O)n1CCN1CC=C(c2ccccc2)CC1 [R1=H, 3,4-bond=ene] | – | 0.139 ± 0.027 µM | – | – | – | IC50 (VMAT2 [1]): 3.9 ± 0.5 nM; Ki (human 5HT1A receptor; HEK-h5HT1A homogenate): 0.197 ± 0.015 µM; Ki (VMAT2 [2]; [9]): 0.821 ± 0.197 µM
CCOC(=O)[C@@H]1CN(CCn2c(=O)[nH]c3ccccc3c2=O)CC[C@@H]1c1ccccc1 (racemic) [Compound 5a, (±) syn-ethyl 1-(2-(2,4-dioxo-1,2-dihydroquinazolin-3(4H)-yl)ethyl)-4-phenylpiperidine-3-carboxylate] | > 10 µM | 0.0373 ± 0.0085 µM | – | 17 nM | – | Ki (VMAT2 [2]): 1.17 ± 0.314 µM
